Assay [1] concerns A-typeJAK/STAT receptor in HEK293T receiver cells. Put plainly: Sender-receiver co-culture, SEAP activity (Fig. 6b, S30). The format is cell-based, human. The note with it: 1.5 × 10^5 receivers + 6 × 10^5 senders; 1 μg/mL dox; 48 h, 37 °C; independent triplicates. The source says:
In detail, we observe a 6.6-fold increase in SEAP activity for receiver cells cultured with senders in the presence of dox compared to a co-culture with senders in the absence of the inducer and 9.7-fold increase compared to receiver cells cultured with control 293S GnTi^- cells; a response that is similar to previously engineered paracrine synthetic communication systems[31],[33],[34],[36],[37],[42], ranging from 1.5- to 20-fold in performance. To understand the origin of this activation level, we plated 4.5 × 10^5 sender cells incubated with doxycycline and measured 0.14 μM of secreted SUMO-tagged A’-A’ dipeptide after 48 h, by means of western blotting using an anti-Smt3 antibody (“Methods” and Supplementary Fig. S29). […]
SEAP concentration in cell culture medium was quantified in terms of absorbance increase due to para-nitrophenylphosphate (pNPP), using a commercially available SEAP assay kit (NBP2-25285, Novus Biologicals). […] Absorbance values were measured at 405 nm, at a controlled temperature of 25 °C, for 60 minutes, using a Tecan Spark 10 M plate reader (Tecan). […] Absorbance units are converted to amount of substrate conversion and SEAP activity is calculated from the slope of the time trace and expressed in units per litre (U/L). […]

The test system of assay [2] is HEK293S GnTi- TetR sender cells. Put plainly: Flow cytometry of EmGFP-positive sender cells with and without doxycycline. The note with it: HEK293S GnTi- TetR senders prior to sorting; with dox. Format: cell-based, human. The method, then: HEK293T cells (ATCC® CRL3216™) or human embryonic kidney 293 S lacking N-acetylglucosaminyltransferase I and expressing the Tet repressor protein (HEK293S GnTI^- TetR; obtained from the group of N. Callewaert at the VIB-UGent Center for Medical Biotechnology; nico.callewaert@ugent.vib.be)[75] were plated in 24-well plates (Greiner) and upon reaching 10-20% confluency were transduced with lentivirus harboring the SUMO-tagged A’-A’ peptide with linker I2 (Supplementary Fig. S26) or SUMO-tagged A’-Γ or Γ’-A’ peptide with linker l4 (Supplementary Fig. S31), under the control of the major immediate–early (MIE) human cytomegalovirus (CMV) enhancer and promoter and two TetO operator sequences[69] followed by an internal ribosome entry site (IRES) from encephalomyocarditis virus (EMCV) controlling the expression of an emerald green fluorescent protein (EmGFP). In total, 50–100 μL lentivirus was added to the cells, containing transduction medium (DMEM (41966; Thermo Fisher Scientific) supplemented with 10% (v/v) heat-inactivated FBS (S-FBS-SA-015; Serana)). […] Cells were bulk-sorted or sorted as single cells for EmGFP by fluorescence-activated cell sorting (FACS) in 1:1 conditioned to growth media (conditioned medium being medium that has been in contact with cells for 24 hours and subsequently harvested and filtered with a 0.45-μm syringe filter (Merck)). […]

1 compound from paper PMC10622552, “Engineering a scalable and orthogonal platform for synthetic communication in mammalian cells” (Nature Communications, 2023) can be followed below.

Regarding `C[C@H]1c2cccc(O)c2C(=O)C2=C(O)[C@]3(O)C(=O)C(C(N)=O)=C(O)[C@@H](N(C)C)[C@@H]3[C@@H](O)[C@@H]21` [doxycycline], in assay [1], the “fold increase in SEAP activity vs co-culture without inducer” value was 6.6 fold and the “fold increase in SEAP activity vs receivers with control 293S GnTi- cells” value is listed as 9.7 fold. The “EmGFP positive cells upon doxycycline, prior to sorting” value in assay [2] is listed as 55.0%.
